Patent US8211883B2, “Topical delivery of phthalocyanines” (priority 2004, dated 2012)
Structures can show the parent of a compound that is named as a salt.

Legend:
[1] = test system: Chinese hamster V79-379 lung fibroblasts; test: Uptake of phthalocyanines into V79 cells
Description: Chinese hamster V79-379 lung fibroblasts were grown in monolayer culture in McCoy's 5A medium (Gibco Laboratories, Grand Island, N.Y.) augmented with 10% calf serum and buffered with 20 mM HEPES (pH 7.4).
Total uptake was determined by scraping the phthalocyanine-treated monolayer, collecting the cells on a glass-fiber filter, and extracting the phthalocyanine in ethanol, as previously described by Ramakrishnan, et al., 1989. (Ramakrishnan, N., M. E. Clay, M. F. Horng, A. R. Antunez, & H. H. Evans, “DNA Lesions and DNA Degradation in Mouse Lymphoma L5178Y Cells After Photodynamic Treatment Sensitized by Chloroaluminum Phthalocyanine”, Photochem. Photobiol, in press, 1989). The amount of drug was determined by absorption at 674 nm and expressed relative to the number of cells, as measured in a Coulter cell counter on an aliquot of the cell population. Controls included cells not treated with drug, medium alone, and drug-containing medium without cells.
The cells were treated with 1 μM AlPcCl (from Eastman Kodak, Rochester, N.Y.) or with phthalocyanine compositions I-VI (0.5-1.0 μM final concentration in the medium) for 18 hours by adding the appropriate volume of a 1.0 mM stock solution in dimethylformamide (DMF) to the culture medium. The growth medium was replaced with 4 mL Hank's balanced salt solution (HBSS), and the cells were irradiated. The light source was a 500 W tungsten-halogen lamp located approximately 29 inches below the surface of a glass exposure tray. The visible light administered to the cells was filtered to allow passage of only that portion of the visible spectrum above 600 nm (Lee Primary red filter No. 106, Vincent Lighting, Cleveland, Ohio). The fluence rate was approximately 0.074 kJ/m^2/s at the level of the cell monolayer.
V79 cells Chinese hamster lung fibroblasts were cultured using the cell culture methods described above. The phthalocyanines listed in table 2 were added to the cultures typically at concentrations of 1 μM, 2 μM, and/or 4 μM and incubated for 18 hours, after which aliquots of the cells were counted and other aliquots were collected on a glass fiber filter. When the filters were dry, the phthalocyanines were extracted into ethanol and the absorption determined at the peak wavelength, usually 668 nm. Values were converted to nmoles taken up by 10^6 cells, using an extinction coefficient of 2.93×10^5.

[2] = test system: Chinese hamster V79-379 lung fibroblasts; test: Growth delay of V79 cultures after phthalocyanine and red light; assay type: cell-based; settings: V79 cells; for Growth Delay (12 kj/m^2), Efficiency Relative to 1 μM (AlPcCl): 18 hours, 12 kJ/m^2 red light
Description: At the time of light exposure, there were approximately 1.5×10^5 cells per 25 cm^2 flask. Following irradiation, the HBSS was replaced by 10 mL of fresh complete growth medium, and the cultures were returned to the 37° C. incubator. At various times before and after irradiation, duplicate cultures were trypsinized and counted. Controls included untreated cells and cells treated with light alone or drug alone. In addition, in each experiment, the drug to be tested was compared to a standard treatment, i.e. 1 μM AlPcCl for 18 hours followed by 12 kJ/m^2 light.
The inhibition of V79 culture growth was measured during a three day period following red light irradiation (12 kJ/m^2) of phthalocyanine-pretreated cells. With each of the active compounds, as well as with AlPcCl, there was an initial decrease in cell density, as dead cells became detached from the monolayer. Thereafter, the cell number per flask increased, as living cells grew and divided. The time for the cell density to recover to the level at the time of light exposure was considered the growth delay. […] The ratio of the growth delay for the test photosensitizer and the growth delay for AlPcCl measured in the same experiment is recorded in Table 1. There was less inhibition of culture growth when cells were exposed to compounds III, V, or VI as expected from the poor cellular uptake of these drugs.

[3] = test system: Chinese hamster V79-379 lung fibroblasts; test: Clonogenic cell survival of V79 cells after photodynamic treatment; assay type: cell-based; settings: for CF10(AIPcCI)/CF10 (Pc) / F10(AIPcCI)/F10 (Pc): 1.0 μM; for CF10(AIPcCI)/CF10 (Pc): CF10 = product of intracellular concentration and fluence reducing survival to 10%; for F10(AIPcCI)/F10 (Pc): F10 = fluence reducing cell survival to 10%
Description: Cells were irradiated at a density of approximately 2×10^6 per 25 cm^2 flask. Immediately after irradiation, the cell monolayer was treated with trypsin, and appropriate aliquots were plated in triplicate to give 100 to 200 colonies in each 10-cm Petri dish. Cell survival was determined by the ability of the cells to form colonies containing at least 50 cells. The response of cells treated with 1 μM AlPcCl and light was compared in each experiment.
Photocytotoxicity of the phthalocyanines compounds I to VI was also assessed by clonogenic assay (Table 1, FIG. 1). In all experiments, 1 μM AlPcCl was included for comparison purposes. From the survival curves (FIG. 1), the fluence reducing the cell survival to 10% (F10) was obtained. The ratio of the F10 for AlPcCl and the F10 for the test compound is recorded in Table 1. Compounds I and II appear to be nearly as efficient photosensitizers as AlPcCl, while compound IV (assayed at half the concentration) was almost twice as efficient as the standard AlPcCl. […] However, in spite of the low efficiency of compound V in inhibiting cell growth, survival measurements were made for this compound, because it was taken up into V79 cells somewhat more efficiently than compounds III and VI.
In order to take differences in cellular uptake into consideration in the assessment of the relative efficiency of these phthalocyanines as photosensitizers of V79 cells, the survival data were replotted against the product of intracellular phthalocyanine concentration and light fluence (FIG. 2). From these curves, the product of intracellular concentration and light fluence reducing survival to 10% (CF10) was obtained, and comparisons of the values for AlPcCl and the test compounds are recorded in Table 1. By this and the other criteria, compound IV appears to be the most efficient photosensitizer. However, when consideration is given to the lesser cell uptake of compound V, it appears to be about as strong a photosensitizer as compound IV.
Using the cell culture methods described above, V79 cells Chinese hamster lung fibroblasts were treated with either 0.5 or 1.0 μM of the phthalocyanines listed in Table 3. About 18 hours thereafter, the cells were irradiated with increasing doses of 675 nm broad band red light from a 500 W tungsten-halogen lamp fitted with a 600 nm high pass filter, to determine the light dosage that would kill 90% of the phthalocyanine treated cells. Where 90% of the cells were not killed, the maximum percent of cells killed were determined, (expressed as % survival) and the related light dosage recorded.

L5178Y cells = test: Induction of apoptosis (DNA ladder) in L5178Y cells after PDT; assay type: cell-based, Mouse; settings: for C × F Ld90, Minimum Demonstrated Condition to Induce Apoptosis: product of concentration and fluence
[4] = test system: RIF-1 (radiation-induced fibrosarcoma) tumors; test: PDT of RIF-1 implanted tumors; assay type: in vivo, C3H/HeN mice; parameters: key to Tumor Responses at 24 hours: complete: no evidence of any tumor mass in any animal; only the scar from the photodynamic therapy was evident.; near complete: evidence of any tumor mass in four or five animals; only some tumor mass in one or two animals.; substantial: a significant tumor shrinkage occurred in all animals. In some animals the tumor response was complete, yet in others the response was not complete.; moderate: some tumor shrinkage was evident in some animals. In animals with some tumor shrinkage, scar formation was evident.; slight: some tumor decrease occurred in one or two mice; settings: 1 mg/kg in corn oil, 675 nm
Description: The relative effectiveness at reducing tumor volume of selected phthalocyanine compounds at a given dosage was compared in vivo. RIF-1, i.e., radiation-induced fibrosarcoma, tumors were implanted into the backs of C3H/HeN mice. One tumor was implanted per mouse. Each of the phthalocyanine compounds listed in Table 7 was sonicated and vortexed in corn oil to produce a suspension. When the tumors reached […] in diameter and 2-3 mm in thickness, each mouse received 1 mg/kg in 0.1 mL of the corn oil, of the phthalocyanine suspension. For comparison, select mice received a conventional photosensitizer; either 5 mg/kg of chloroaluminum phthalocyanine tetrasulfonate, herein also referred to as “AlPcTS” in phosphate buffered saline or 5 mg/kg of Photofrin®-II in 5% dextrose. Twenty-four hours after the photosensitizers were administered, the tumors were irradiated with visible radiation delivered by an argon-pumped dye laser. The mice that received a phthalocyanine photosensitizer received light having a wavelength of 675 nm and the mice that received the Photofrin® II photosensitizer received light having a wavelength of 630 nm. Each tumor received 135 J/cm^2 of radiation. Tumor size was measured every day using calipers. The initial tumor volume was 50±10 mm^3. Tumor volume was calculated according to the hemiellipsoid model by the formula: V=½(4π)/3×(½×(w/2))×h
• complete—no evidence of any tumor mass in any animal; only the scar from the photodynamic therapy was evident. • near complete—evidence of […] in four or five animals; only some tumor mass in one or two animals. • substantial—a significant tumor shrinkage occurred in all animals. In some animals the tumor response was complete, yet in others the response was not complete. • moderate—some tumor shrinkage was evident in some animals. In animals with some tumor shrinkage, scar formation was evident. • slight—some tumor decrease occurred in one or two mice.

[5] = test system: human skin keratome biopsies; test: Penetration of topically applied PcIV and salts into human skin, confocal fluorescence microscopy; assay type: in vitro ADME
Description: Human skin absorption of PcIV was analyzed by fluorescence confocal microscopy. PcIV fluorescence, upon activation with a HeNe laser at 633 nm, was visualized using a 650 long pass filter. Briefly, 0.4 mm thick human keratomes were removed from the gluteal region of healthy volunteers and divided into 1.5 cm×1.5 cm squares of skin. Upon application of PcIV to the epidermis in a vehicle of ethanol and propylene glycol, visualization of penetration of PcIV was achieved by fluorescence. Pc 4 was then prepared as PcIV-pyruvate and PcIV-HCl and applied in the same vehicle as Pc 4 to the epidermis. Three concentrations, namely, 0.1 mg/mL, 0.05 mg/mL, and 0.01 mg/mL were tested per PcIV formulation. Skin was incubated at 37° C. for 1, 2, and 4 hours, along with vehicle controls. […] Maximum PcIV fluorescence was detectable using laser transmission of 3% for the 0.1 mg/mL and 30% for the 0.01 mg/mL. Both PcIV.pyruvate and PcIV.HCl however could be visualized with a laser transmission of 2-3% for the 0.1 mg/mL and 7-9% for the 0.01 mg/mL concentrations.
The ability of PcIV and the newly prepared PcIV salts (HCl and pyruvate) to penetrate into the epidermis of keratome derived biopsies was examined. The time course of penetrance as well as the effect of dose of the PcIV compounds were evaluated. PcIV and the PcIV.HCl and PcIV.pyruvate salts were resuspended in ethanol (100%, 1 part PcIV, 499 parts ethanol) and then diluted to final concentrations in a 30% Propylene Glycol 70% Ethanol mixture.
Keratome biopsies of normal skin were obtained from normal volunteers after written consent according to UHHS IRB protocol # 05-95-03. To date, seven experiments have been performed. The range of age for volunteers was 20-40 yrs. Individuals represented Fitzpatrick skin types between I-III. Skin biopsies were held in PBS following the keratome procedure until processed for PcIV Application (less than 1 hr). The keratome skin samples (1.5 cm^2) were overlayed onto sterile gauze in 80 mm tissue culture petri dishes epidermal side down. PcIV compounds were then applied to the corners of the sterile gauze and allowed to “wick” through the gauze and contact the epidermis of the skin for the indicated times. Following the incubation, the tissue was removed from the gauze and washed three times in phosphate buffered saline and held, in PBS, until analysis by confocal microscopy. Confocal images were acquired using a 20×N.A. 0.5 water immersion objective on a Zeiss 510 confocal microscope. PcIV fluorescence was elicited using a 633 nm wavelength for excitation, and collected with a 633 nm dichroic mirror and 650 nm long-pass filter.

## [Cl][Al]1[n]2c3c4ccccc4c2N=C2N=C(N=c4c5ccccc5c([n]41)=NC1=NC(=N3)c3ccccc31)c1ccccc12 [AlPcCl, chloroaluminum phthalocyanine, reference compound]
[1]; V79 cells, 1.0 μM, 18 hours
  Uptake, Efficiency Relative to 1 μM (AlPcCl): 1.0
[1]; V79 cells, 1 μM, mean±S. D., 25 determinations
  uptake: 0.723±0.172 nmole/10^7 cells
[2]; 1 μM for 18 hours and 12 kj/m^2 light
  growth delay: approximately 24 hours
[2]
  Growth Delay (12 kj/m^2), Efficiency Relative to 1 μM (AlPcCl): 1.0
[3]
  CF10(AIPcCI)/CF10 (Pc): 1.0
  F10(AIPcCI)/F10 (Pc): 1.0

## CN(C)CCC[Si](C)(C)[O][Al]1[n]2c3c4ccccc4c2N=C2N=C(N=c4c5ccccc5c([n]41)=NC1=NC(=N3)c3ccccc31)c1ccccc12 [Compound I, AlPcOSi(CH3)2(CH2)3N(CH3)2]
[2]
  Growth Delay (12 kj/m^2), Efficiency Relative to 1 μM (AlPcCl): 2.1
[3]
  CF10(AIPcCI)/CF10 (Pc): 0.51
  F10(AIPcCI)/F10 (Pc): 0.94

## C[Si](C)(CCCCNS(C)(=O)=O)O[Si]1(O)n2c3c4ccccc4c2N=C2N=C(N=c4c5ccccc5c(n41)=NC1=NC(=N3)c3ccccc31)c1ccccc12 (stereo not shown) [IX, HOSiPcOSi(CH3)2(CH2)4NHSO2CH3]
[1]; 1 μM, 18 hours
  Uptake Into V79 Cells, 1 μM: 0.1 ± 0.1 n Moles/10^6 cells
[1]; 4 μM, 18 hours
  Uptake Into V79 Cells, 4 μM: 1.8 ± 0.8 n Moles/10^6 cells
[1]; V79 cells, average of all data, asterisk: listed value is for 1 μM, average would be higher
  n Moles/10^6 Cells/μM (composite uptake value): 0.3 n Moles/10^6 Cells/μM
[3]; 0.5 μM, at 9 kj/m^2
  Maximum Effect (% survival at kj/m^2): 44% at 9
L5178Y cells; 0.3 μM
  Fluence, Minimum Demonstrated Condition to Induce Apoptosis: 12.0 kJ/m^2
  C × F Ld90, Minimum Demonstrated Condition to Induce Apoptosis: 3.6 kJ/m^2
L5178Y cells; 0.5 μM
  Fluence, Minimum Demonstrated Condition to Induce Apoptosis: 8.0 kJ/m^2
  C × F Ld90, Minimum Demonstrated Condition to Induce Apoptosis: 4.0 kJ/m^2
L5178Y cells; 1.0 μM
  Fluence, Minimum Demonstrated Condition to Induce Apoptosis: 12.0 kJ/m^2
  C × F Ld90, Minimum Demonstrated Condition to Induce Apoptosis: 12.0 kJ/m^2
[4]; 135 J/cm^2, light 24 h after dosing
  Tumor Responses at 24 hours: near complete
[4]; 135 J/cm^2, controls 4 days
  Doubling Time of Initial Tumor Volume after PDT: 11 days

## CN(C)CCC[Si](C)(C)O[Si]1(O)n2c3c4ccccc4c2N=C2N=C(N=c4c5ccccc5c(n41)=NC1=NC(=N3)c3ccccc31)c1ccccc12 (stereo not shown) [PcIV-HCl, HOSiPcOSi(CH3)2(CH2)3N(CH3)2(HCl)]
[5]
  effect of salt formulation on penetration through the skin: does not hinder the penetration
